Laboratory results published in patent US20240277737A1, “METHOD FOR GENERATING DRY POWDER SUITABLE FOR INHALATION ADMINISTRATION OF ANTIMICROBIAL PHOSPHOLIPID COMPOSITIONS” (Celestial Therapeutics, Inc., priority 2021, published 2024).
Converted amounts (≈) assume the structure as drawn.

Legend:
[1] = particle size distribution by Sympatec laser particle sizer (RODOS/ASPIROS, 3 bar); format: physicochemical; settings: raw material, R5 lens
Description: The Particle Size Distribution analysis was performed at 3 bar dispersion pressure using a Sympatec laser Particle Sizer equipped with RODOS/ASPIROS dispersion unit and an R5 lens.
The particle size analysis of the spray dried powders was performed at 3 bar dispersion pressure using a Sympatec laser Particle Sizer equipped with RODOS/ASPIROS dispersion unit and an R3 lens (n=2) and is summarised in Table 13 and in FIG. 19-FIG. 21. The PSD of spray dried powders decreased with increasing atomisation pressure and reducing outlet temperature during the spray drying manufacture.
The PSD analysis performed on 174 #003A-01 & 174 #003B-01 following storage at −20° C. was repeat-ed.
The spray dried product 174 #005A-01 was vacuum dried for 24 hours at 25° C. with a maximum pressure ˜0.1 mbar. After the 24 hours, the PSD of this product was evaluated. Post vacuum drying, increased amounts of aggregated material were observed and as a result the Dv90 increased.
Based on the PSD results after the storage, an aliquot of the formulation 174 #005A-01, that was stored at −20° C. for 4 weeks, was taken out from the freezer, transferred in sealed container and equilibrated for 5 hours at ambient temperature (20 C-25 C, <30% RH) in a sealed vial.
The 174 #010A-01 post vacuum drying was separated in different aliquot and stored at 2-8° C. and at −20° C. The PSD and DSC of the spray dried powder was evaluated through time. The spray dried powder was removed from the storage condition an equilibrated at low RH for 5 hours (19° C. and 28% RH) before to perform any test. […]
The particle size distribution of the micronized sample was determined by laser particle size analysis using an R1 (0.1-35.0 μm range) & R3 lens (0.5-175.0 μm range) at 3 bar dispersal pressure at T-0 and after T=7 days after storage of the sample at −20° C. […] There was a slight discrepancy between the two lenses, with the trace of the material measured using the R1 lens appearing larger and very slightly bimodal which wasn't apparent in the trace measured using an R3 lens. […]

[2] = tested on: Respiratory Syncytial Virus (RSV); settings: bronchial epithelial cells; cited from earlier work
[3] = solubility screening for API spray drying (organic solvents); format: physicochemical
Description: The solubility of the surfactant was investigated to identify a suitable solvent system in which the surfactants can be solubilized to process the material by spray drying.
The class III solvents were preferred to the class II solvents because the […] and of lower risk to human health. The solubility of the POPG using class III solvent was lower than 0.5 mg/mL. For this reason, Class II solvents were investigated. The highest solubility was obtained with a mixture DCM/Methanol 5:1 v/v and it will be used as a vehicle for the spray drying process.

[4] = tested on: Toll-like receptor 4 (TLR4) interacting proteins CD14 and MD-2; settings: cited from earlier work

SMILES: CCCCCCCC/C=C\CCCCCCCC(=O)O[C@H](COC(=O)CCCCCCCCCCCCCCC)COP(=O)(O)OCC(O)CO (mixture of isomers) [POPG, 1-Palmitoy-2-loleoyl-sn-glycerol-3-phospho-(1′-rac-glycerol)]
- VMD [1]: 59.05 ± 13.17 μm
- X10 [1]: 1.80 ± 0.07 μm
- X50 [1]: 12.65 ± 4.65 μm
- cytopathic effects induced by RSV [2]: significantly inhibited
- interleukin-6 production [2]: significantly inhibited
- interleukin-8 production [2]: significantly inhibited
- Solubility ([3]; Acetone): <500 µg/mL
- Solubility ([3]; Chloroform): 16700 µg/mL (≈ 22300 µM)
- Solubility ([3]; Cycloexhane): <500 µg/mL
- Solubility ([3]; DCM/ Methanol 5:1 v/v): ~70000 µg/mL (≈ 93500 µM)
- Solubility ([3]; Dichloromethane (DCM)): <500 µg/mL
- Solubility ([3]; Dimethyl sulfoxide (DMSO)): 500 µg/mL (≈ 668 µM)
- Solubility ([3]; Dimethylformamide (DMF)): <500 µg/mL
- Solubility ([3]; Ethanol (96%)): 500 µg/mL (≈ 668 µM)
- Solubility ([3]; Ethyl Acetate): <500 µg/mL
- Solubility ([3]; Heptane): <500 µg/mL
- Solubility ([3]; Isopropanol (IPA)): <500 µg/mL
- Solubility ([3]; Methanol): 1350 µg/mL (≈ 1800 µM)
- Solubility ([3]; class III solvent): lower than 0.5 mg/mL
- inflammatory responses induced by lipopolysaccharide [4]: markedly attenuate
